Data taken from ChEMBL document CHEMBL5137099, “Discovery of Novel cccDNA Reducers toward the Cure of Hepatitis B Virus Infection” (J Med Chem, 2022).

How the values were obtained:
[1] = Cmax in C3H/J mouse plasma at 5 mg/kg, po by LC-MS/MS analysis; type: ADME, organism-based; set-up: dose 5 mg/kg, route po
[2] = Metabolic stability in mouse hepatocytes assessed as intrinsic clearance; type: ADME, cell-based, Hepatocyte; details: read-out: CLH
[3] = Dose normalized Cmax in C57BL/6 mouse at 5 mg/kg, po by LC-MS/MS analysis; type: ADME, organism-based; details: in vivo
[4] = Metabolic stability in human microsomes assessed as clearance; type: ADME, Microsome; details: read-out: CLH
[5] = Octanol-aqueous buffer distribution coefficient, log D of the compound at pH 7.4 by CAMDIS assay; type: physicochemical
[6] = Dose normalized AUC (0 to 24 hrs) in C57BL/6 mouse at 30 mg/kg, po by LC-MS/MS analysis; type: ADME, organism-based; details: in vivo
[7] = Cmax in C57BL/6 mouse at 5 mg/kg, po by LC-MS/MS analysis; type: ADME, organism-based; set-up: dose 5 mg/kg, route po; details: in vivo
[8] = Elimination half life in C3H/J mouse at 5 mg/kg, po by LC-MS/MS analysis; type: ADME, organism-based; details: in vivo, read-out: beta t1/2 (converted)
[9] = AUC (0 to infinity) in C3H/J mouse at 5 mg/kg, po by LC-MS/MS analysis; type: ADME, organism-based; set-up: time infinity, dose 5 mg/kg, route po; details: in vivo
[10] = AUC (0 to infinity) in C57BL/6 mouse at 5 mg/kg, po by LC-MS/MS analysis; type: ADME, organism-based; set-up: time infinity, dose 5 mg/kg, route po; details: in vivo
[11] = Dose normalized AUC (0 to 24 hrs) in C57BL/6 mouse at 5 mg/kg, po by LC-MS/MS analysis; type: ADME, organism-based; details: in vivo
Hepatitis B virus [12] = test: Antiviral activity against HBV infected in human HepDES19 cells assessed as reduction in HBV cccDNA production by measuring inhibition of HBeAg secretion incubated for 5 days by ELISA; type: functional, organism-based; details: HepDES19, 120 h
Hepatitis B virus [13] = test: Antiviral activity against HBV infected in human primary hepatocyte cells assessed as reduction in HBV cccDNA production by measuring inhibition of HBsAg secretion measured after 48 hrs by ELISA; type: functional, organism-based
[14] = AUC (0 to infinity) in C57BL/6 mouse at 30 mg/kg, po by LC-MS/MS analysis; type: ADME, organism-based; set-up: time infinity, dose 30 mg/kg, route po; details: in vivo
[15] = Cmax in C57BL/6 mouse at 30 mg/kg, po by LC-MS/MS analysis; type: ADME, organism-based; set-up: dose 30 mg/kg, route po; details: in vivo
[16] = Dose normalized Cmax in C3H/J mouse at 5 mg/kg, po by LC-MS/MS analysis; type: ADME, organism-based; details: in vivo
[17] = Permeability of the compound by PAMPA analysis; type: ADME; details: read-out: permeability
[18] = Tmax in C3H/J mouse plasma at 5 mg/kg, po by LC-MS/MS analysis; type: ADME, organism-based
[19] = Tmax in C57BL/6 mouse at 5 mg/kg, po by LC-MS/MS analysis; type: ADME, organism-based; details: in vivo
[20] = Dose normalized AUC (0 to 24 hrs) in C3H/J mouse at 5 mg/kg, po by LC-MS/MS analysis; type: ADME, organism-based; details: in vivo
[21] = Volume of distribution at steady state in C57BL/6 mouse at 2 mg/kg, iv by LC-MS/MS analysis; type: ADME, organism-based; details: in vivo, read-out: Vdss
[22] = Elimination half life in C57BL/6 mouse at 5 mg/kg, po by LC-MS/MS analysis; type: ADME, organism-based; details: in vivo, read-out: beta t1/2 (converted)
[23] = Oral bioavailability in C57BL/6 mouse at 5 mg/kg by LC-MS/MS analysis; type: ADME, organism-based; details: in vivo
[24] = Dose normalized AUC (0 to 24 hrs) in C57BL/6 mouse at 2 mg/kg, iv by LC-MS/MS analysis; type: ADME, organism-based; details: in vivo
[25] = Elimination half life in C57BL/6 mouse at 30 mg/kg, po by LC-MS/MS analysis; type: ADME, organism-based; details: in vivo, read-out: beta t1/2 (converted)
[26] = Tmax in C57BL/6 mouse at 30 mg/kg, po by LC-MS/MS analysis; type: ADME, organism-based; details: in vivo
[27] = Clearance in C57BL/6 mouse at 2 mg/kg, iv by LC-MS/MS analysis; type: ADME, organism-based; details: in vivo
[28] = Aqueous solubility of the compound; type: physicochemical; details: buffer
[29] = AUC (0 to infinity) in C57BL/6 mouse at 2 mg/kg, iv by LC-MS/MS analysis; type: ADME, organism-based; set-up: time infinity, dose 2 mg/kg, route iv; details: in vivo
Hepatitis B virus [30] = test: Antiviral activity against HBV infected in human HepG2 cells assessed as reduction in HBeAg secretion incubated for 5 days by counter screen assay; type: functional, organism-based; details: HepG2, 120 h
[31] = Elimination half life in C57BL/6 mouse at 2 mg/kg, iv by LC-MS/MS analysis; type: ADME, organism-based; details: in vivo, read-out: beta t1/2 (converted)

O=C(O)C1CCN(c2ccc3c(=O)c4cccc(Cl)c4oc3c2)C1 (racemic)
Cmax [1]: 580 ng/mL | CLint scaled [2]: 32.3 mL/min/kg | Cmax/dose [3]: 331 ng/mL | CLint scaled [4]: 6.2 mL/min/kg | logD [5]: 1.12 | AUC/dose [6]: 151 ng·h/mL | Cmax [7]: 1650 ng/mL | half-life [8]: 1.11 h | AUC(0-inf) [9]: 761 ng·h/mL | AUC(0-inf) [10]: 2680 ng·h/mL | AUC/dose [11]: 500 ng·h/mL | IC50 (Hepatitis B virus [12]): 1740 nM | IC50 (Hepatitis B virus [13]): 1340 nM | AUC(0-inf) [14]: 31400 ng·h/mL | Cmax [15]: 17300 ng/mL | Cmax/dose [16]: 116 ng/mL | Papp [17]: 2.27 ×10⁻⁶ cm/s | Tmax [18]: 0.5 h | Tmax [19]: 0.5 h | AUC/dose [20]: 171 (ng·h/mL)/(mg/kg) | Vd [21]: 0.65 L/kg | half-life [22]: 10.2 h | bioavailability [23]: 56% | AUC/dose [24]: 937 (ng·h/mL)/(mg/kg) | half-life [25]: 4.26 h | Tmax [26]: 0.5 h | clearance [27]: 17.6 mL/min/kg | solubility [28]: < 435 µg/mL | AUC(0-inf) [29]: 1900 ng·h/mL | IC50 (Hepatitis B virus [30]): > 50000 nM | half-life [31]: 2.1 h
